Test results: patent US20210106649A1, “SYNERGISTIC COMBINATION OF CHEMOTHERAPY AND PEPTIDE FOR TREATING CANCER” (TOBEBIO Novel Drug Laboratory Co., Ltd., priority 2019, published 2021)
Ends that are not written are not given here.

Tested on: AsPC-1 pancreatic cancer cells
Assay: Survival analysis of AsPC-1 pancreatic cancer orthotopic mice model
Format: in vivo, athymic nude mice
Conditions: alloferon-1 2.5 mg/kg daily s.c.; paclitaxel 8 mg/kg weekly i.p.; orthotopic AsPC-1 nude mice
Method: AsPC-1, human pancreas adenocarcinoma cell line, was purchased from American Type Culture Collection (ATCC) and maintained in a complete Eagle's minimal essential medium (MEM) medium supplemented with 10% fetal bovine serum (FBS) (Hyclone), non-essential amino acid, sodium pyruvate, penicillin-streptomycin and vitamin solution (Life Technologies). AsPC-1 cells were incubated at 37° C. in a mixture atmosphere of 5% CO2 and 95% […]. Cell lines were authenticated via short tandem repeat (STR) profiling (Cosmogenetech).
The number of survival days for all animals was recorded and statistical analysis was performed using the GraphPad Prism 8. Kaplan-Meier survival plots were analyzed with the Log-rank (Mantel-Cox) test to compare survival rates between groups. A probability (P) value of <0.05 or lower was considered statistically significant.

Molecule	Median survival [days]
HGVSGHGQHGVHG [Alloferon-1]	91
CC(=O)O[C@H]1C(=O)[C@@]2(C)[C@H]([C@H](OC(=O)c3ccccc3)[C@]3(O)C[C@H](OC(=O)[C@H](O)[C@@H](NC(=O)c4ccccc4)c4ccccc4)C(C)=C1C3(C)C)[C@]1(OC(C)=O)CO[C@@H]1C[C@@H]2O [Paclitaxel, paclitaxel]	107
